Assay results taken from patent publication US9493480B2, “Monomeric trioxane amide sulfur compounds” (THE JOHNS HOPKINS UNIVERSITY, priority 2011, dated 2016).
Entries after “also recorded” stand apart in the source; their conditions may differ.

Legend:
[1] = test system: Plasmodium berghei, ANKA malaria strain; assay: In vivo antimalarial efficacy, single oral dose of trioxane combined with mefloquine hydrochloride in P. berghei infected mice; details: for cure outcome (survival to day 30 with no detectable parasites = complete cure): single oral dose of trioxane (6 mg/kg) combined with mefloquine hydrochloride (18 mg/kg); for parasitemia on day 30 after infection in surviving mice: value of one mouse where so stated; for mouse survival in words: single oral dose 100 mg/kg
Method: […] Rosenthal, A. S., et al., Malaria-infected Mice are Cured by a Single Oral Dose of New Dimeric Trioxane Sulfones Which are Also Selectively and Powerfully Cytotoxic to Cancer Cells. J. Med. Chem. 2009, 52, 1198-1203. Each of four mice in a group was treated orally 24 hours post infection with a single dose of 0.20 mL [(0.20 mL/1.07 mL)×0.64 mg=0.12 mg] of diluted trioxane solution, […] Alternatively, a single dose of 7.5 mg/kg of trioxane plus 15.0 mg/kg of mefloquine hydrochloride was used. The malariometrics used involved determining blood parasitemia levels, as well as monitoring the duration of animal survival compared to survival time of infected animals receiving no drug.
The average survival time of the malaria-infected animals receiving no drug was 6.8 days post infection. All of the infected mice in this study receiving the trioxane drug artemether (2b) plus mefloquine died on the average on day 18.8 post infection (Table 1, controls). Additionally, a single oral dose of artemether (6 mg/kg) plus lumefantrine (18 mg/kg) was not curative (see Table 1), with the mice dying an average of 12.5 days after infection. […]
(§1) A widely accepted indication of complete cure (i.e., 100% efficacy) is survival of animals to day 30 post infection with no detectable malaria parasites in the animals' blood at that time. It is important to note that the combination of the standard trioxane drug artemether (2b), with either mefloquine hydrochloride or lumefantrine, was not curative (Table 1, controls). […] While 3-fluoroanilide 12b was not curative, administration of 3-methylthioether 3-arteSanilide 12d at a dose of 7.5 mg/kg plus 15 mg/kg mefloquine hydrochloride achieved mouse survival through day 30 after infection; however, all four of the surviving mice appeared sick and had considerable parasitemia levels (25-50%). […] In addition, 3-arteSanilide 12d is more efficacious than 4-arteSanilide 12c. […] Replacing the sulfur atom in 12d with an oxygen atom afforded methyl ether 12p, which prolonged survival time to only 21.8 days after infection. This observation indicates the critical nature of the sulfur atom. In addition, the lipophilicity of 3-arteSanilide 12d was increased by lengthening the alkyl sulfide chain from methyl to n-propyl. 3-n-Propyl sulfide 12l, however, is much less efficacious than the curative methyl sulfide 3-arteSanilide 12d.

[2] = test system: P. falciparum (NF54) Parasites; assay: In vitro antimalarial potencies of trioxanes against P. falciparum (NF54) parasites; format: cell-based; details: Plasmodium falciparum, M ± SD of at least four determinations
Method: Biology: In Vitro Potencies. Prompted by the unexpected in vivo efficacy of 3-arteSanilide 12d, the in vitro the intrinsic antimalarial activity, free of host-mediated factors, was assayed of compounds that differ in the oxidative state of the sulfur atom (Table 2).

P388 leukemia = details: NCI Report on NSC 369397, tested on 25 Oct. 1983; cited from earlier work
[3] = Overt toxicity, behavior and weight gain of treated malaria-infected mice; format: in vivo; details: for toxicity of single oral dose: single oral dose 100 mg/kg, no mefloquine
Method: as §1

[4] = Stability of the neat compound at 60° C.; format: physicochemical; details: absence of solvent
Excerpt: Hydroboration-oxidation followed by oxidation of the resulting primary alcohol produced C-10 carboxylic acid 11. Posner, G. H., et al., Orally Active, Antimalarial, Anticancer, Artemisinin-derived Trioxane Dimers with High Stability and Efficacy. J. Med. Chem. 2003, 46, 1060-1065. Condensation of carboxylic acid 11 with various anilines yielded a library of C-10 monomeric trioxane anilides 12b-h, 12l, 12o-q (FIG. 2). Scale up synthesis is expected to be straightforward. Without wishing to be bound to any one particular theory, because these anilides 12b-q are C-10 non-acetal derivatives, they are more hydrolytic ally stable than the C-10 acetal first generation artemisinin derivatives, such as artemether (2b) or artesunate (2c). In the absence of solvent, neat 3-arteSanilide 12d, for example, is stable for at least 7 days at 60° C.

[5] = single oral dose 24 h post infection: trioxane 6 mg/kg + mefloquine hydrochloride 18 mg/kg, C57BL/6J male mice, 4 per group
[6] = single oral dose: trioxane 6 mg/kg + mefloquine hydrochloride 18 mg/kg
[7] = single oral dose: trioxane 7.5 mg/kg + mefloquine hydrochloride 15 mg/kg
[8] = single oral dose: trioxane 7.5 mg/kg + mefloquine hydrochloride 15 mg/kg, mice, 4 per group
[9] = Plasmodium berghei, 72 h, single oral dose: trioxane 100 mg/kg, no mefloquine, read-out: % suppression of parasitemia (on day 3 after infection)
[10] = single oral dose: trioxane 100 mg/kg, no mefloquine
[11] = single oral dose: artemether 6 mg/kg + lumefantrine 18 mg/kg
[12] = mefloquine hydrochloride alone, single oral dose 15 mg/kg
[13] = mefloquine hydrochloride alone, single oral dose 18 mg/kg

| Compound | average survival (days) after infection [1, 5] [days] | % suppression of parasitemia (on day 3 after infection) [1, 6] [%] | EC50 [2] [nM] | % suppression of parasitemia (on day 3 after infection) [1, 7] [%] | average survival (days) after infection [1, 8] [days] | further results |
| --- | --- | --- | --- | --- | --- | --- |
| C[C@H]1[C@@H](CCC(=O)Nc2cccc([S+](C)[O-])c2)O[C@@H]2O[C@]3(C)CC[C@H]4[C@H](C)CC[C@@H]1[C@@]24OO3 (stereo partly shown) [12h] | 30 | >99.9 | 29 ± 0.43 |  |  | cure outcome (survival to day 30 with no detectable parasites = complete cure) [1]: partially curative; parasitemia on day 30 after infection in surviving mice [1, 6]: ^eOne mouse had 1.8% parasitemia on day 30 after infection. |
| CCCS(=O)(=O)c1ccccc1NC(=O)CC[C@H]1O[C@@H]2O[C@]3(C)CC[C@H]4[C@H](C)CC[C@@H]([C@H]1C)[C@@]24OO3 [12n] | 21.8 | >99.9 |  |  |  |  |
| C[C@@H]1CC[C@H]2[C@@H](C)C(=O)O[C@@H]3O[C@@]4(C)CC[C@@H]1[C@]32OO4 [Artemisinin (1), artemisinin, reference compound] |  |  | 10 ± 1.1 |  |  | activity against P388 leukemia (P388 leukemia): inactive |
| C[C@H]1[C@@H](CCC(=O)Nc2cccc(S(C)(=O)=O)c2)O[C@@H]2O[C@@]3(C)CC[C@H]4[C@H](C)CC[C@@H]1[C@@]24OO3 [12j] |  |  | 21 ± 1.1 | 99.9 | 15.5 |  |
| CSc1cc(NC(=O)CC[C@H]2O[C@@H]3O[C@@]4(C)CC[C@H]5[C@H](C)CC[C@@H]([C@H]2C)[C@@]35OO4)cc(SC)c1 [12f, 3,5-arteSSanilide] | 30 | >99.9 | 6.5 ± 0.28 |  |  | inhibition in vivo at 100 mg/kg [1, 9]: 97.9%; mouse survival in words ([1]; no mefloquine): essentially no increase in mouse longevity; cure outcome (survival to day 30 with no detectable parasites = complete cure) [1]: partially curative; parasitemia on day 30 after infection in surviving mice [1, 6]: 5% and ^dThree mice were parasite-free on day 30, but one mouse had 5% parasitemia on day 30 after infection.; average survival (days) after infection [1, 10]: 7.5 days; toxicity of single oral dose [3]: nontoxic |
| CO[C@H]1O[C@@H]2O[C@@]3(C)CC[C@H]4[C@H](C)CC[C@@H]([C@H]1C)[C@@]24OO3 [artemether (2b), artemether, reference compound] | 18.8 | >99.9 |  | >99.9 | 19.8 | % suppression of parasitemia (on day 3 after infection) [1, 11]: >99.9%; average survival (days) after infection [1, 11]: 12.5 days |
| CCCCN(CCCC)CC(O)c1cc(Cl)cc2c1-c1ccc(Cl)cc1/C2=C/c1ccc(Cl)cc1 (stereo not shown) [lumefantrine, reference compound] |  |  |  |  |  | inhibition in vivo at 18 mg/kg ([1]; Plasmodium berghei, po, 72 h, read-out: % suppression of parasitemia (on day 3 after infection)): > 99.9%; average survival (days) after infection ([1]; lumefantrine alone, single oral dose 18 mg/kg): 21.5 days |
| Cl.OC(c1cc(C(F)(F)F)nc2c(C(F)(F)F)cccc12)C1CCCCN1 (stereo not shown) [mefloquine, mefloquine hydrochloride, reference compound] |  |  |  |  |  | % suppression of parasitemia (on day 3 after infection) [1, 12]: >99.9%; average survival (days) after infection [1, 12]: 15.5 days; % suppression of parasitemia (on day 3 after infection) [1, 13]: >99.9%; average survival (days) after infection [1, 13]: 19.8 days |
| C[C@H]1[C@@H](CCC(=O)Nc2ccccc2S(C)(=O)=O)O[C@@H]2O[C@]3(C)CC[C@H]4[C@H](C)CC[C@@H]1[C@@]24OO3 [12k] |  |  |  | >99.9 | 22.8 |  |
| CSc1ccccc1NC(=O)CC[C@H]1O[C@@H]2O[C@@]3(C)CC[C@H]4[C@H](C)CC[C@@H]([C@H]1C)[C@@]24OO3 [12e, 2-arteSanilide] | 27.0 | >99.9 |  |  |  |  |
| C[C@H]1[C@@H](CCC(=O)Nc2ccc(S(C)(=O)=O)cc2Cl)O[C@@H]2O[C@]3(C)CC[C@H]4[C@H](C)CC[C@@H]1[C@@]24OO3 [12o] |  |  |  | >99.9 | 24.5 |  |
| CSc1cccc(NC(=O)CC[C@H]2O[C@@H]3O[C@@]4(C)CC[C@H]5[C@H](C)CC[C@@H]([C@H]2C)[C@@]35OO4)c1 [12d, 3-arteSanilide] | 30 | >99.9 | 9.1 ± 0.57 | >99.9 | 30 | inhibition in vivo at 100 mg/kg [1, 9]: 97.2%; parasitemia in uninfected mice inoculated with blood from the cured mice ([1]; donors: 6 mg/kg trioxane + 18 mg/kg mefloquine, read after 30 days): no parasitemia was detected; mouse survival in words ([1]; no mefloquine): prolonged mouse survival; cure outcome (survival to day 30 with no detectable parasites = complete cure) [1]: complete cure; also recorded: cures malaria-infected mice; parasitemia on day 30 after infection in surviving mice [1, 6]: ^bNo parasitemia detected on day 30 after infection.; average survival (days) after infection [1, 10]: 15.0 days; time stable, neat [4]: at least 7 days; weight gain by day 30 after infection ([3]; 6 mg/kg trioxane + 18 mg/kg mefloquine, compared with uninfected control mice): gained as much weight by day 30 after infection (data not shown) as the uninfected control mice; also recorded: gain as much weight as the control mice; overt toxicity or behavioral change attributable to trioxane administration ([3]; malaria-infected mice cured by trioxane combined with mefloquine hydrochloride): neither overt toxicity nor behavioral change; toxicity of single oral dose [3]: nontoxic |
| C[C@H]1[C@@H](CCC(=O)Nc2cccc([S+](C)[O-])c2)O[C@@H]2O[C@@]3(C)CC[C@H]4[C@H](C)CC[C@@H]1[C@@]24OO3 (stereo partly shown) [12g] | 23.0 | >99.9 | 23 ± 1.3 |  |  | cure outcome (survival to day 30 with no detectable parasites = complete cure) [1]: does not |
| CCCCCCOc1ccc(NC(=O)CC[C@H]2O[C@@H]3O[C@]4(C)CC[C@H]5[C@H](C)CC[C@@H]([C@H]2C)[C@@]35OO4)cc1 [12q] |  |  |  | >99.9 | 15.0 |  |
| COc1cccc(NC(=O)CC[C@H]2O[C@@H]3O[C@]4(C)CC[C@H]5[C@H](C)CC[C@@H]([C@H]2C)[C@@]35OO4)c1 [12p] | 21.8 | >99.9 |  |  |  |  |
| CCCS(=O)(=O)c1cccc(NC(=O)CC[C@H]2O[C@@H]3O[C@]4(C)CC[C@H]5[C@H](C)CC[C@@H]([C@H]2C)[C@@]35OO4)c1 [12m] | 11.0 | >99.9 |  |  |  |  |
| CCCSc1cccc(NC(=O)CC[C@H]2O[C@@H]3O[C@]4(C)CC[C@H]5[C@H](C)CC[C@@H]([C@H]2C)[C@@]35OO4)c1 [12l] | 23.0 | >99.9 |  |  |  |  |
| CSc1ccc(NC(=O)CC[C@H]2O[C@@H]3O[C@@]4(C)CC[C@H]5[C@H](C)CC[C@@H]([C@H]2C)[C@@]35OO4)cc1 [12c, 4-arteSanilide] |  |  |  | >99.9 | 16.3 |  |
| C[C@H]1[C@@H](CCC(=O)Nc2ccc(S(C)(=O)=O)cc2)O[C@@H]2O[C@]3(C)CC[C@H]4[C@H](C)CC[C@@H]1[C@@]24OO3 [12i] |  |  |  | >99.9 | 22.5 |  |
